Measurements reported in publication PMC7265341, “Quantifying CDK inhibitor selectivity in live cells” (Nature Communications, 2020).
Read-outs that look alike come from different tables or passages of the source.

Columns and labels:
[1] = target: CDK10/Cyclin L2 (Homo sapiens, UniProt Q15131); assay: NanoBRET live-cell target engagement, CDK10-NanoLuc/Cyclin L2 in HEK-293; settings: read-out: Inhibition at 10µM (%), CDK10/L2
[2] = target: CDK8/Cyclin C (Homo sapiens, UniProt P49336); assay: NanoBRET live-cell target engagement, NanoLuc-CDK8/Cyclin C in HEK-293; format: binding; settings: CDK8/C, read-out: Inhibition at 10µM (%)
[3] = target: CDK13/Cyclin K (Homo sapiens, UniProt Q14004); assay: NanoBRET live-cell target engagement, CDK13-NanoLuc/Cyclin K in HEK-293; format: binding; settings: for inhibition at 10 µM: CDK13/K, read-out: Inhibition at 10µM (%)
[4] = target: CDK19/Cyclin C (Homo sapiens, UniProt Q9BWU1); assay: NanoBRET live-cell target engagement, NanoLuc-CDK19/Cyclin C in HEK-293; settings: for inhibition at 10 µM: read-out: Inhibition at 10µM (%), CDK19/C
[5] = target: CDK11B/Cyclin L2 (Homo sapiens, UniProt P21127); assay: NanoBRET live-cell target engagement, CDK11B-NanoLuc/Cyclin L2 in HEK-293; format: binding; settings: CDK11b/L2, read-out: Inhibition at 10µM (%)
[6] = target: CDK9/Cyclin K (Homo sapiens, UniProt P50750); assay: NanoBRET live-cell target engagement, NanoLuc-CDK9/Cyclin K in HEK-293; format: binding; settings: CDK9/K, read-out: Inhibition at 10µM (%)
[7] = target: CDK1/Cyclin E1 (Homo sapiens, UniProt P06493); assay: NanoBRET live-cell target engagement, CDK1-NanoLuc/Cyclin E1 in HEK-293; format: binding; settings: CDK1/E1, read-out: Inhibition at 10µM (%)
[8] = target: CDK12/Cyclin K (Homo sapiens, UniProt Q9NYV4); assay: NanoBRET live-cell target engagement, CDK12-NanoLuc/Cyclin K in HEK-293; format: binding; settings: for inhibition at 10 µM: CDK12/K, read-out: Inhibition at 10µM (%)
[9] = target: CDK7 (Homo sapiens, UniProt P50613); assay: NanoBRET live-cell target engagement, NanoLuc-CDK7 in HEK-293; format: binding; settings: CDK7, read-out: Inhibition at 10µM (%)
[10] = target: CDK2/Cyclin E1 (Homo sapiens, UniProt P24941); assay: NanoBRET live-cell target engagement, CDK2-NanoLuc/Cyclin E1 in HEK-293; format: binding; settings: CDK2/E1, read-out: Inhibition at 10µM (%)
[11] = target: CDK3/Cyclin E1 (Homo sapiens, UniProt Q00526); assay: NanoBRET live-cell target engagement, CDK3-NanoLuc/Cyclin E1 in HEK-293; format: binding; settings: CDK3/E1, read-out: Inhibition at 10µM (%)
[12] = target: T1, CDK11A/Cyclin L2 (Homo sapiens, UniProt Q9UQ88); assay: NanoBRET live-cell target engagement, CDK11A-NanoLuc/Cyclin L2 in HEK-293; format: binding; settings: CDK11a/L2, read-out: Inhibition at 10µM (%)
T1 sequence (Q9UQ88 1-783): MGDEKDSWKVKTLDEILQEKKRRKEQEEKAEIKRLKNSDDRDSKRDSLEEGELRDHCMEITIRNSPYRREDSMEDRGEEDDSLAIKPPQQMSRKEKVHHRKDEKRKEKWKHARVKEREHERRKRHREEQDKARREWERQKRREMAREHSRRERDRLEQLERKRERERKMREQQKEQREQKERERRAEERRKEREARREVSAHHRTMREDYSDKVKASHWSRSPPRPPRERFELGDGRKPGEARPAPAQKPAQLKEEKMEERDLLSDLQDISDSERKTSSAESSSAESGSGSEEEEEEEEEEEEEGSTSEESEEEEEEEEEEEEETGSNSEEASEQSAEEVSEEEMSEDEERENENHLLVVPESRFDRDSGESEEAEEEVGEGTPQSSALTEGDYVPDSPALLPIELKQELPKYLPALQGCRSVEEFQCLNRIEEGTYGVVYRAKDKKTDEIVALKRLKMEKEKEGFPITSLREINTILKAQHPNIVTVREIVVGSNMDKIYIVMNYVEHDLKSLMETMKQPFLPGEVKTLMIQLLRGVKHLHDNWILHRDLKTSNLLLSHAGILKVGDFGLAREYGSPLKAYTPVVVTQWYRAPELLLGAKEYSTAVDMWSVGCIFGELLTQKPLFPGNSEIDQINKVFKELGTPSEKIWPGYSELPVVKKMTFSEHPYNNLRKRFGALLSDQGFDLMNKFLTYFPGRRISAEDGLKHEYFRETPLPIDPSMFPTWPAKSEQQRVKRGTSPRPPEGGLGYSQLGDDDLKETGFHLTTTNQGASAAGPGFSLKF

[13] = target: CDK5/CDK5R1 (Homo sapiens, UniProt Q00535); assay: NanoBRET live-cell target engagement, CDK5-NanoLuc/CDK5R1 in HEK-293; format: binding; settings: CDK5/CDK5R1, read-out: Inhibition at 10µM (%)
[14] = target: CDK20/Cyclin H (Homo sapiens, UniProt Q8IZL9); assay: NanoBRET live-cell target engagement, NanoLuc-CDK20/Cyclin H in HEK-293; format: binding; settings: CDK20/H, read-out: Inhibition at 10µM (%)
[15] = target: CDK4/Cyclin D1 (Homo sapiens, UniProt P11802); assay: NanoBRET live-cell target engagement, NanoLuc-CDK4/Cyclin D1 in HEK-293; format: binding; settings: CDK4/D1, read-out: Inhibition at 10µM (%)
Chain of CDK4/Cyclin D1 (P11802 whole entry): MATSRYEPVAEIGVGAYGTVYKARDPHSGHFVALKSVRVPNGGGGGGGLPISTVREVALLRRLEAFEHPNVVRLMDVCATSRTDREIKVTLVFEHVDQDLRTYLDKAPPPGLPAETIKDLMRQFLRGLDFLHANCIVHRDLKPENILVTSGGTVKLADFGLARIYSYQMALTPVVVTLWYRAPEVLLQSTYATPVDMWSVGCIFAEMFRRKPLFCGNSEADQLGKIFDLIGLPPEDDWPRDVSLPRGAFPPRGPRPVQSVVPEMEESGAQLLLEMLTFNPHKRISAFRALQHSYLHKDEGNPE
Chain of CDK4/Cyclin D1 (P24385 whole entry partner): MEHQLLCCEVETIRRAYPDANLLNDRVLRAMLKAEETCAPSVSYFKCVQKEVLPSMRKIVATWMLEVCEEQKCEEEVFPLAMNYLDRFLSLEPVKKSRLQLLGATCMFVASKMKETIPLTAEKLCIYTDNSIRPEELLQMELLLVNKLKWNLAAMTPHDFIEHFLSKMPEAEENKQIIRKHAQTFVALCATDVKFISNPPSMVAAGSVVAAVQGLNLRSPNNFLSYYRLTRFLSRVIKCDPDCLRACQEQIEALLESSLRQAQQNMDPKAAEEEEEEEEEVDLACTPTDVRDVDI

Chain of CDK1/Cyclin E1 (P06493 whole entry): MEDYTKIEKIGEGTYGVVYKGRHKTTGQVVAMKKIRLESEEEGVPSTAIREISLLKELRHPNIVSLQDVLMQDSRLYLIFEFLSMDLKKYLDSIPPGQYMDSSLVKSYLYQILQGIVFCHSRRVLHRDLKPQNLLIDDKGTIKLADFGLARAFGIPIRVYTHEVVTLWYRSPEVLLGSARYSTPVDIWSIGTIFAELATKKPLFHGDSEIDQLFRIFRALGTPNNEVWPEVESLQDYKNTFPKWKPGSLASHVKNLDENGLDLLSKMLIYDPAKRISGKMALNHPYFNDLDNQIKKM
Chain of CDK1/Cyclin E1 (P24864 whole entry partner): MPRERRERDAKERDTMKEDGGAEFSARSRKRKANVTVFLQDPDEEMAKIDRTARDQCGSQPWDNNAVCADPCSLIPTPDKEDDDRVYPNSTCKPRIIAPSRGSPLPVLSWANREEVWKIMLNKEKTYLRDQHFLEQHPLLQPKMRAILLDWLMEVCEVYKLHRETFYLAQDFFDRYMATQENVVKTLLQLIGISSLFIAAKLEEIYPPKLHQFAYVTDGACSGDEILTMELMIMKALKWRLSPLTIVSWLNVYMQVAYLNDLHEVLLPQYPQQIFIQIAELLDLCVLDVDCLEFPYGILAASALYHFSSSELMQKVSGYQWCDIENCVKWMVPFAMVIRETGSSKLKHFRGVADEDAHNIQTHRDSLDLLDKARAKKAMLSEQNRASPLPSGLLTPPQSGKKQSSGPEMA
Chain of CDK10/Cyclin L2 (Q15131 whole entry): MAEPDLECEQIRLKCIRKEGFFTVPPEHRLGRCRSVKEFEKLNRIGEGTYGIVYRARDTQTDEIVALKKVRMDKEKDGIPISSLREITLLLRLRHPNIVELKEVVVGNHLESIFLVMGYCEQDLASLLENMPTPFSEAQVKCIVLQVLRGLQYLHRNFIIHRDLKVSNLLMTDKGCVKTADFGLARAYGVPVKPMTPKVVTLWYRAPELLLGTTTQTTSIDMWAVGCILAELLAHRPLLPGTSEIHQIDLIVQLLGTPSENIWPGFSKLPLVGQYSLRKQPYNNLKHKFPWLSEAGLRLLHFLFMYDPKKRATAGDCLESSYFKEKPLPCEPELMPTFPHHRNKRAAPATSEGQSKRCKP
Chain of CDK13/Cyclin K (O75909 whole entry): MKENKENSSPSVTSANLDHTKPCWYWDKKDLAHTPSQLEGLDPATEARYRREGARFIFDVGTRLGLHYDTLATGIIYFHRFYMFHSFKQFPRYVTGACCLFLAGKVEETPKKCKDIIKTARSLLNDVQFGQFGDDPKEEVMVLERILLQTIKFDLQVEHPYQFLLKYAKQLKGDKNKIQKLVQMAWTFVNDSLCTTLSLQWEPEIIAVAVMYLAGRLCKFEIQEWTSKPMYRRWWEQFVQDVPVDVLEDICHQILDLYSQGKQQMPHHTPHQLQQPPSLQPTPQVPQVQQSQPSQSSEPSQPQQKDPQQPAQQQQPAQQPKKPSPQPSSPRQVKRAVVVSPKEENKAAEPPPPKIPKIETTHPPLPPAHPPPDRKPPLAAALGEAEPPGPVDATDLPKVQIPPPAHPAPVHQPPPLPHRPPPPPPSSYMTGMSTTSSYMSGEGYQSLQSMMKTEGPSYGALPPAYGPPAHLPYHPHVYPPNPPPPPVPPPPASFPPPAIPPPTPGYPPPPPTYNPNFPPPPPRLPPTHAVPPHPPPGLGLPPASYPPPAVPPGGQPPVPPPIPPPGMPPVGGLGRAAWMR
Chain of CDK13/Cyclin K (Q14004 other isoform, or with tags, fused parts or gaps): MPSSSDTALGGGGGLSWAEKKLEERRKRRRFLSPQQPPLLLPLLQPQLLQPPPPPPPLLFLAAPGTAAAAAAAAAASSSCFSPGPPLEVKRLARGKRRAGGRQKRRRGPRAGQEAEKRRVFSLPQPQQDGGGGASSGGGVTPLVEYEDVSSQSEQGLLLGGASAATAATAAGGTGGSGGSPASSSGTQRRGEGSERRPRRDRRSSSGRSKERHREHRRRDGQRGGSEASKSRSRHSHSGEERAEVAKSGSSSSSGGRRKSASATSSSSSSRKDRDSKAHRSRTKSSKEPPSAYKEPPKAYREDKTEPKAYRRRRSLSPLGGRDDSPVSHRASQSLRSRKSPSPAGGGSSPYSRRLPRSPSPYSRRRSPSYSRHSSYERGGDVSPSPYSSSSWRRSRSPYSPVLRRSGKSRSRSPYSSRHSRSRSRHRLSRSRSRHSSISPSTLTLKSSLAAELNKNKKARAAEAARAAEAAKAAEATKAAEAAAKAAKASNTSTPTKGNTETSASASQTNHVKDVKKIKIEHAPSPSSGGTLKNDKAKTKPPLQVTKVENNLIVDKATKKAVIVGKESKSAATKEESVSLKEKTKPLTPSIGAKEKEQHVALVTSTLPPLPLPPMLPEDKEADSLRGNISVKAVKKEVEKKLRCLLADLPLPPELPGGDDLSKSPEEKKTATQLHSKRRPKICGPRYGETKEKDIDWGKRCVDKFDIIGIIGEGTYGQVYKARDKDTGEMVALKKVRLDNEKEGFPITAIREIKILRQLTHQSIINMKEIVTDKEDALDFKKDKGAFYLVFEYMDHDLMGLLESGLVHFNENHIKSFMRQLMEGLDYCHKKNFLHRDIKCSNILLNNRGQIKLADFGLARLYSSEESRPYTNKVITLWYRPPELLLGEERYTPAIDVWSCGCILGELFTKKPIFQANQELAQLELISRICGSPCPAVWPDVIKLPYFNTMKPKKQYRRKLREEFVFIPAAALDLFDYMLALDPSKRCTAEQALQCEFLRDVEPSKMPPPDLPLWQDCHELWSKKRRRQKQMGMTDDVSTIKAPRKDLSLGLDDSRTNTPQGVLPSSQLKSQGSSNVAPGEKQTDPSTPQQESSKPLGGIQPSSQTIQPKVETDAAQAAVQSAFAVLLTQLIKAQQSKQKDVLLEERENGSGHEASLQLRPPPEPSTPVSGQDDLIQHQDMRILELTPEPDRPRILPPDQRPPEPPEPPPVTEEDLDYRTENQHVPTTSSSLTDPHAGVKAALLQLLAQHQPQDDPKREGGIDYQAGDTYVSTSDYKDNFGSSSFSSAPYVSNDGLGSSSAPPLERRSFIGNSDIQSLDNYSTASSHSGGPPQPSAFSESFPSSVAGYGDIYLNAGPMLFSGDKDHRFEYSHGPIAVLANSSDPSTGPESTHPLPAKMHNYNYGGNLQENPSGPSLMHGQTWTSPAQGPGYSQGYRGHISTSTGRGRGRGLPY
Chain of CDK8/Cyclin C (P49336 whole entry): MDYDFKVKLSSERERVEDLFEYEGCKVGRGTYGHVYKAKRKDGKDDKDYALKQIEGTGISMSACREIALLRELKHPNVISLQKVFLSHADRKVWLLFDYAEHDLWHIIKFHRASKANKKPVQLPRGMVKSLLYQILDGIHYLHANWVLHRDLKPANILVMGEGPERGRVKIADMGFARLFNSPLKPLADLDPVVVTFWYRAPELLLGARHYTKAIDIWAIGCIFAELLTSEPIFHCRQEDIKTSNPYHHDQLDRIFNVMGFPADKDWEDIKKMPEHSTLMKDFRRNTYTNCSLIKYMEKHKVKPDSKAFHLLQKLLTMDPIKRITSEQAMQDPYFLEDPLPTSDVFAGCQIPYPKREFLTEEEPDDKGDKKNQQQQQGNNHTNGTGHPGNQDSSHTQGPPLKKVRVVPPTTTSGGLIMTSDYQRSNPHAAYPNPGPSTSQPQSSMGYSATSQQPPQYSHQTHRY
Chain of CDK8/Cyclin C (P24863 whole entry partner): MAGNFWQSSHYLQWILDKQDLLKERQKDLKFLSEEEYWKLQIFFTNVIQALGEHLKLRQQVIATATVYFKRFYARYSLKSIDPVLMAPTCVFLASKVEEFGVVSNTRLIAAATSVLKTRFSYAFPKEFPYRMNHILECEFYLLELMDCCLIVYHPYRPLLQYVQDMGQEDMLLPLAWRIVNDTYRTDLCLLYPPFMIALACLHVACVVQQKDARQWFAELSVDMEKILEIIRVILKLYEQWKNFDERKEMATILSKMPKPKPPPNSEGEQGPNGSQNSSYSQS
Chain of CDK3/Cyclin E1 (Q00526 whole entry): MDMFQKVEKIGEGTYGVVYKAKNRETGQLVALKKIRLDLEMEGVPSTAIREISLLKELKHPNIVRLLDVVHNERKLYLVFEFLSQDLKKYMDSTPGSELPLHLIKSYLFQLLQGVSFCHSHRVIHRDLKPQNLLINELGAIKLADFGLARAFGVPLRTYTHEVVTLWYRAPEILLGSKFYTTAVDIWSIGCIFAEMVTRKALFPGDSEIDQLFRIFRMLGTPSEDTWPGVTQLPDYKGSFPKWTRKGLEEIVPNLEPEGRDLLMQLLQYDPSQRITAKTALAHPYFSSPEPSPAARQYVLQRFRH
Chain of CDK3/Cyclin E1 (P24864 whole entry partner): as the sequence (P24864 whole entry partner) above

Compound: CN1CC[C@H](c2c(O)cc(O)c3c(=O)cc(-c4ccccc4Cl)oc23)[C@H](O)C1 [Flavopiridol]
- inhibition at 10 µM ([1]; average): 38.5%
- inhibition at 10 µM ([1]; experiment 1): 45.2%
- inhibition at 10 µM ([1]; experiment 2): 31.9%
- inhibition at 10 µM ([2]; average): 95.7%
- inhibition at 10 µM ([2]; experiment 1): 96.6%
- inhibition at 10 µM ([2]; experiment 2): 94.9%
- inhibition at 10 µM ([3]; average): 28%
- inhibition at 10 µM ([3]; experiment 1): 33.4%
- inhibition at 10 µM ([3]; experiment 2): 22.5%
- receptor occupancy at 10 µM ([3]; primary screen, live HEK-293): ~50%
- IC50 ([4]; IC50 (nM), CDK19/C, experiment 1): 19 nM
- IC50 ([4]; IC50 (nM), CDK19/C, experiment 2): 18 nM
- IC50 ([4]; IC50 (nM), CDK19/Y (so in the source), average (± SEM where n=3)): 19 nM
- IC50 ([4]; IC50 for CDK/cyclin complexes, CDK19/C, live HEK-293, 2 h, mean ± S.E.M. (n=3) or mean (n=2)): 19 nM
- inhibition at 10 µM ([4]; average): 95.8%
- inhibition at 10 µM ([4]; experiment 1): 98%
- inhibition at 10 µM ([4]; experiment 2): 93.5%
- inhibition at 10 µM ([5]; average): 47.4%
- inhibition at 10 µM ([5]; experiment 1): 40.9%
- inhibition at 10 µM ([5]; experiment 2): 54%
- inhibition at 10 µM ([6]; average): 97.8%
- inhibition at 10 µM ([6]; experiment 1): 97.5%
- inhibition at 10 µM ([6]; experiment 2): 98%
- inhibition at 10 µM ([7]; average): 72.2%
- inhibition at 10 µM ([7]; experiment 1): 65.7%
- inhibition at 10 µM ([7]; experiment 2): 78.8%
- inhibition at 10 µM ([8]; average): 48.6%
- inhibition at 10 µM ([8]; experiment 1): 51.7%
- inhibition at 10 µM ([8]; experiment 2): 45.6%
- receptor occupancy at 10 µM ([8]; primary screen, live HEK-293, read-out: CDK12 occupancy at 10 µM): ~50%
- inhibition at 10 µM ([9]; average): 72.3%
- inhibition at 10 µM ([9]; experiment 1): 65.8%
- inhibition at 10 µM ([9]; experiment 2): 78.8%
- inhibition at 10 µM ([10]; average): 75%
- inhibition at 10 µM ([10]; experiment 1): 74.5%
- inhibition at 10 µM ([10]; experiment 2): 75.4%
- inhibition at 10 µM ([11]; average): 80.6%
- inhibition at 10 µM ([11]; experiment 1): 78%
- inhibition at 10 µM ([11]; experiment 2): 83.3%
- inhibition at 10 µM ([12]; average): 27.7%
- inhibition at 10 µM ([12]; experiment 1): 30.2%
- inhibition at 10 µM ([12]; experiment 2): 25.2%
- inhibition at 10 µM ([13]; average): 83.1%
- inhibition at 10 µM ([13]; experiment 1): 85%
- inhibition at 10 µM ([13]; experiment 2): 81.1%
- inhibition at 10 µM ([14]; experiment 1): 6.3%
- inhibition at 10 µM ([14]; experiment 2): 6.5%
- inhibition at 10 µM ([15]; average): 90.8%
- inhibition at 10 µM ([15]; experiment 1): 88.6%
- inhibition at 10 µM ([15]; experiment 2): 93%
